Source: paper PMC10482691, “LTP induction by structural rather than enzymatic functions of CaMKII” (Nature, 2023)
“And” between values parts separate entries of the source, which are not always exact repeats. Equal values may be shown once.

Key:
JNK2α2(h) = JNK2α2(h) (Homo sapiens, UniProt P45984); assay: Kinase selectivity panel (residual activity at 1 μM); type: biochemical; conditions: inhibitor at 1 μM
PKCα(h) = PKCα(h) (Homo sapiens, UniProt P17252); assay: as above; type: biochemical; conditions: inhibitor at 1 μM; read-out: residual kinase activity in % of maximal activity
[1] = test system: CA3–CA1 LTP in CaMKII T286A mutant slices; assay: LTP field recordings in hippocampal slices of T286A mice; type: cell-based, mouse; conditions: for fEPSP slope (normalized to baseline): individual slices, sheet 3c
Method: WT and mutant mouse hippocampal slices were prepared using P56–P70 mice. Isoflurane-anesthetized mice were rapidly decapitated, and the brain was dissected in an ice-cold high-sucrose solution containing 220 mM sucrose, 12 mM MgSO4, 10 mM glucose, 0.2 mM CaCl2, 0.5 mM KCl, 0.65 mM NaH2PO4, 13 mM NaHCO3 and 1.8 mM ascorbate. Transverse hippocampal slices (400 μm) were made using a tissue chopper (McIlwain) and transferred into 32 °C ACSF containing 124 mM NaCl, 3.5 mM KCl, 1.3 mM NaH2PO4, 26 mM NaHCO3, 10 mM glucose, 2 mM CaCl2, 1 mM MgSO4 and 1.8 mM ascorbate. All slices were recovered in 95% O2/5% CO2 for at least 1.5 h before experimentation.
For electrophysiological slice recording experiments, a glass micropipette (typical resistance of 0.4–0.8 megaohm when filled with ACSF) was used to record fEPSPs from the CA1 dendritic layer in response to stimulation of the Schaffer collaterals using a tungsten bipolar electrode. Slices were continually perfused with 30.5 °C ± 0.5 °C ACSF at a rate of 2.5 ± 0.5 ml min^−1 during recordings. Stimuli were delivered every 20 s, and three responses (1 min) were averaged for analysis. Data were analysed using WinLTP software with slope calculated as the initial rise from 10 to 60% of the response peak. Input–output curves were generated by increasing the stimulus intensity at a constant interval until a maximum response or population spike was noted to determine stimulation that elicits 50% of maximum slope. […] A stable baseline was acquired for a minimum of 20 min at 50% maximum slope before high-frequency stimulation (HFS; 2 × 100 Hz, 10 s interval) was applied. Responses were recorded for 40 or 60 min after HFS. Change in slope was calculated as a ratio of the average slope of the 20 min baseline (before HFS). Bar graphs of the percentage of fEPSP slope were calculated by averaging the last 10 min time points post-HFS and normalized to baseline.

GSK3α(h) = GSK3α(h) (Homo sapiens, UniProt P49840); assay: Kinase selectivity panel (residual activity at 1 μM); type: biochemical; conditions: inhibitor at 1 μM; read-out: residual kinase activity in % of maximal activity
[2] = test system: GFP–paCaMKII F89G in hippocampal neurons; assay: paCaMKII F89G photoactivation: synaptic enrichment in hippocampal neurons; type: cell-based
Method: Neurons were wrapped in aluminium foil immediately following transfection and only exposed to red light in imaging. One image was then taken of each neuron to serve as a pre-photoactivation baseline. Immediately following this baseline image, paCaMKII was globally photoactivated with a 405 nm laser pulse (100 ms exposure, 75% laser power) once every 10 s for a total of 60 s. Neurons were then imaged 15 min after stimulation and assessed for CaMKII synaptic enrichment and dendritic spine growth.
Neuronal cultures were transfected on DIV 15–18 and imaged 24–48 h later. […] Two-dimensional maximum-intensity projection images were then generated and analysed using a custom-build programme in ImageJ. The programme utilizes combinatorial thresholding to mask regions of the cell that contain high-intensity puncta of postsynaptic density protein 95 (PSD95; a marker of the post-synaptic side of excitatory synapses in dendritic spines) and regions of the dendritic shaft that contain no fluorescence intensity of PSD95. As a measure of synaptic enrichment, the ratio of mean CaMKII fluorescence intensity of the PSD95 mask to the mean CaMKII fluorescence intensity in the dendritic shaft mask is measured. Spine growth was assessed by measuring the changes in mCherry cell fill fluorescence intensity within dendritic spine divided by the initial fluorescence intensity (F/F0).

Sequence of JNK2α2(h) (P45984 whole entry): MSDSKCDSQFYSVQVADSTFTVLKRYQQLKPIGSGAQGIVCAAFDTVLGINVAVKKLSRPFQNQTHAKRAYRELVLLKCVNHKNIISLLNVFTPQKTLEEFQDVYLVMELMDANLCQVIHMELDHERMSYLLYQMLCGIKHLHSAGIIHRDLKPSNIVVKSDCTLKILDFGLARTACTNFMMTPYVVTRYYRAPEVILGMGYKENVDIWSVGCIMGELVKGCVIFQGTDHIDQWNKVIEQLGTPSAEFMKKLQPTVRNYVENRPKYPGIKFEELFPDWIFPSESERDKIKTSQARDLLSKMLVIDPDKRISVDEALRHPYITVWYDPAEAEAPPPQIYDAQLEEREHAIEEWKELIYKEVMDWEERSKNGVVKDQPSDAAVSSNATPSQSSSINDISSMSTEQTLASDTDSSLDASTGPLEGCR
Sequence of GSK3α(h) (P49840 whole entry): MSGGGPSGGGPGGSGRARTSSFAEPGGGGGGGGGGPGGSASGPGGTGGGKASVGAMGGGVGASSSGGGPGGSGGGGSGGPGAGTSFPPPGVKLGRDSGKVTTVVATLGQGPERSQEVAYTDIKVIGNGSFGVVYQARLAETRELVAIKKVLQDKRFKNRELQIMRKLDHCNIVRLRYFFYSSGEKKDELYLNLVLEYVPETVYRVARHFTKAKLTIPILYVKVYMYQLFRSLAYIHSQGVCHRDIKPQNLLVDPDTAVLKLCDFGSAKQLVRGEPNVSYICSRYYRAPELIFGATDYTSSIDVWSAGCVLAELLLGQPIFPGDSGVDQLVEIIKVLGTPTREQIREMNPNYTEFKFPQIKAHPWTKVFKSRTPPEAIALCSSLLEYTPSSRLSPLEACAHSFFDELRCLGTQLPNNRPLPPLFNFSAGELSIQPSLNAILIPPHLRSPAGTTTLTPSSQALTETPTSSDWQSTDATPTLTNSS

NCCNc1cccc(-c2ccnc3[nH]c4ccccc4c23)c1 [AS283]
residual kinase activity in % of maximal activity (JNK2α2(h)): 82%
remaining activity at 1 µM (PKCα(h)): 49%
effect on LTP in slices from T286A mutant mice ([1]; AS283 10 μM): enabled LTP
LTP quantification (fEPSP slope normalized to baseline) ([1]; T286A mice, 10 μM AS283 during LTP induction): 173.525% and 142.167% and 174.092% and 153.624%
fEPSP slope (normalized to baseline) ([1]; Time (min) 1.33333): 226.574 and 276.052 and 180.946 and 150.731
fEPSP slope (normalized to baseline) ([1]; Time (min) 2.33333): 192.365 and 206.349 and 186.037 and 149.446
fEPSP slope (normalized to baseline) ([1]; Time (min) 3.33333): 182.945 and 175.983 and 184.471 and 147.196
fEPSP slope (normalized to baseline) ([1]; Time (min) 4.33333): 177.987 and 162.181 and 176.442 and 135.626
fEPSP slope (normalized to baseline) ([1]; Time (min) 5.33333): 158.156 and 152.519 and 169.979 and 137.876
fEPSP slope (normalized to baseline) ([1]; Time (min) 6.33333): 150.223 and 154.589 and 168.609 and 152.017
fEPSP slope (normalized to baseline) ([1]; Time (min) 7.33333): 124.442 and 151.829 and 171.154 and 133.698
fEPSP slope (normalized to baseline) ([1]; Time (min) 8.33333): 102.628 and 144.237 and 169 and 134.983
fEPSP slope (normalized to baseline) ([1]; Time (min) 9.33333): 104.115 and 145.618 and 173.309 and 134.983
fEPSP slope (normalized to baseline) ([1]; Time (min) 10.3333): 122.955 and 140.787 and 178.596 and 135.626
fEPSP slope (normalized to baseline) ([1]; Time (min) 11.3333): 100.149 and 132.505 and 172.721 and 133.055
fEPSP slope (normalized to baseline) ([1]; Time (min) 12.3333): 126.921 and 132.505 and 175.267 and 134.662
fEPSP slope (normalized to baseline) ([1]; Time (min) -1): 91.7204 and 91.0973 and 91.6479 and 102.523
fEPSP slope (normalized to baseline) ([1]; Time (min) -2): 90.7288 and 96.6184 and 93.802 and 102.844
fEPSP slope (normalized to baseline) ([1]; Time (min) -3): 103.619 and 106.97 and 89.298 and 98.6662
fEPSP slope (normalized to baseline) ([1]; Time (min) -4): 104.115 and 88.3368 and 91.2562 and 100.916
fEPSP slope (normalized to baseline) ([1]; Time (min) -5): 91.7204 and 91.0973 and 97.7186 and 101.237
fEPSP slope (normalized to baseline) ([1]; Time (min) -6): 96.1825 and 96.6184 and 96.7395 and 100.273
fEPSP slope (normalized to baseline) ([1]; Time (min) -7): 87.2583 and 94.548 and 98.5019 and 100.916
fEPSP slope (normalized to baseline) ([1]; Time (min) -8): 96.1825 and 95.9282 and 99.6769 and 97.7021
fEPSP slope (normalized to baseline) ([1]; Time (min) -9): 98.6614 and 96.6184 and 102.614 and 101.88
fEPSP slope (normalized to baseline) ([1]; Time (min) -10): 90.7288 and 91.0973 and 99.0894 and 97.0593
fEPSP slope (normalized to baseline) ([1]; Time (min) -11): 103.124 and 102.139 and 101.439 and 98.9876
fEPSP slope (normalized to baseline) ([1]; Time (min) -12): 109.073 and 120.083 and 100.656 and 94.4882
fEPSP slope (normalized to baseline) ([1]; Time (min) -13): 105.602 and 105.59 and 103.398 and 96.4165
remaining activity at 1 µM (GSK3α(h)): 82%

CC(C)(C)n1nc(Cc2cccc3ccccc23)c2c(N)ncnc21 [NM-PP1]
CaMKII movement after photoactivation of paCaMKII F89G ([2]; NM-PP1 10 μM): enabled similar movement
synaptic enrichment after photoactivation (sheet 6e) ([2]; paCaMKII F89G + NM-PP1, individual neurons): 1.231 and 1.446 and 1.136 and 1.385 and 1.127 and 1.67 and 1.6203 and 1.284 and 0.7763 and 1.224 and 1.168 and 1.296 and 1.013 and 0.919 and 1.131 and 1.135 and 1.776
